Here are results for 44 compounds from patent publication US9150603B2, “2′-cyano substituted nucleoside derivatives and methods of use thereof useful for the treatment of viral diseases” (priority 2011, dated 2015).

Series [1] has as its system replicon cells. The series can be described thus: Cytotoxicity in replicon cells (MTS assay). The conditions noted are these: CC50, MTS assay, three days post dosing. Background: In antiviral work, replicon cells carry a viral genome segment that copies itself.
In series [2] the test system is replicon cells (1b-Con1). The series can be described thus: Replicon activity assay (1b-Con1 replicon cells, real-time RT-PCR). In kind it is cell-based, HCV. The conditions noted are these: three days post-dosing.
The test system of series [3] is HCV replicon cells (1b). The series can be described thus: Cell-based HCV replicon assay (replicon RNA level by Taqman real time PCR). The following applies: HCV 1b replicon, cells harvested on day 3. On the procedure:
To measure cell-based anti-HCV activity of selected compounds of the present invention, replicon cells were seeded at 5000 cells/well in 96-well collagen I-coated Nunc plates in the presence of the test compound. […]. Cells were harvested on day 3 by the addition of 1× cell lysis buffer (Ambion cat #8721). The replicon RNA level was measured using real time PCR (Taqman assay). The amplicon was located in 5B. The PCR primers were: 5B.2F, […] (SEQ ID. NO. 1); 5B.2R, […] (SEQ ID. NO. 2); the probe sequence was FAM-labeled […] (SEQ ID. NO. 3). GAPDH RNA was used as endogenous control and was amplified in the same reaction as NSSB (multiplex PCR) using primers and VIC-labeled probe recommended by the manufacturer (PE Applied Biosystem). The real-time RT-PCR reactions were run on ABI PRISM 7900HT Sequence Detection System using the following program: 48° C. for 30 minutes, 95° C. for 10 minutes, 40 cycles of 95° C. for 15 sec, 60° C. for 1 minute. The ACT values (CT5B−CTGAPDH) were plotted against the concentration of test compound and fitted to the sigmoid dose-response model using XLfit4 (MDL). […]; Alternatively, to quantitate the absolute amount of replicon RNA, a standard curve was established by including serially diluted T7 transcripts of replicon RNA in the Taqman assay. All Taqman reagents were from […] Applied Biosystems. Such an assay procedure was described in detail in e.g. Malcolm et al., Antimicrobial Agents and Chemotherapy 50: 1013-1020 (2006).

Series [4] deals with T1, HCV NS5B RNA-dependent RNA polymerase (1b-BKΔ55) (Hepatitis C virus genotype 1b, UniProt P26663).
T1 construct: 5 nM NS5B (1b-BKΔ55) enzyme
T1 sequence (P26663 2420-2955 limits assumed, stated change not applied): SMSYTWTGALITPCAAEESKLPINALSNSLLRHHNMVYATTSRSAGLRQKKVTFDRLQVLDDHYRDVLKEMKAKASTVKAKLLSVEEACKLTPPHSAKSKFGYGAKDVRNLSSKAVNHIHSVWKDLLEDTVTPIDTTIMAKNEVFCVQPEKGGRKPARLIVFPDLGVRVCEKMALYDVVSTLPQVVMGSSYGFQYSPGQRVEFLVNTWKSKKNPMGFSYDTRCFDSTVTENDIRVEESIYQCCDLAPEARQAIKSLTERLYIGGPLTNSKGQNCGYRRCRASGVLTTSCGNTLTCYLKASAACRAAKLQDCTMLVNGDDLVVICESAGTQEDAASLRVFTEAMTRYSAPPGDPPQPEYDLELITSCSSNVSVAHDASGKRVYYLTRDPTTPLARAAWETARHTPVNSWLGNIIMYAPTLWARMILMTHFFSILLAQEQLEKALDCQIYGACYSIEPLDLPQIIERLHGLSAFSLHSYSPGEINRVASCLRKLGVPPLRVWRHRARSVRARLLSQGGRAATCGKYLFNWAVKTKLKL
The series can be described thus: Inhibition of HCV NS5B polymerase by nucleoside triphosphate analogs (radiolabeled nucleotide incorporation assay). In kind it is biochemical.

Broadly, the EC50 is the midpoint of the concentration-response curve. Low readings indicate a more potent agent, high ones a less potent agent. `C[C@H](NP(=O)(OC[C@H]1O[C@@H](n2ccc(=O)[nH]c2=O)[C@](C)(C#N)[C@@H]1O)Oc1ccccc1)C(=O)O[C@H](C)c1ccccc1` (some centres unmarked) showed a Cytotoxicity in series [1] above 100 µM. Further, the EC50 in series [2] (Hepatitis C virus, 72 h) is 34 µM.
The matching figures for `CC(C)OC(=O)[C@H](C)NP(=O)(OC[C@H]1O[C@@H](n2ccc(=O)[nH]c2=O)[C@](C)(C#N)[C@@H]1O)Oc1ccccc1` (some centres unmarked): above 100 µM and 8.3 µM.
Take `C[C@H](NP(=O)(OC[C@H]1O[C@@H](n2ccc(=O)[nH]c2=O)[C@](C)(C#N)[C@@H]1O)Oc1ccccc1)C(=O)OC1CCCCC1` (some centres unmarked): the EC50 in series [2] (Hepatitis C virus, 72 h) amounted to 2.4 µM.
On the same count and under the same terms, then `CCCOC(=O)[C@H](C)NP(=O)(OC[C@H]1O[C@@H](n2cnc3c(OC)nc(N)nc32)[C@](C)(C#N)[C@@H]1O)Oc1ccccc1` (some centres unmarked), with 2.1 µM.
Compound `COc1nc(N)nc2c1ncn2[C@@H]1O[C@H](COP(=O)(N[C@@H](C)C(=O)OC(C)C)Oc2ccccc2)[C@@H](O)[C@@]1(C)C#N` (some centres unmarked) returned a Cytotoxicity in series [1] above 100 µM. This compound came in with an EC50 in series [2] (Hepatitis C virus, 72 h) of 2.2 µM.
`COc1nc(N)nc2c1ncn2[C@@H]1O[C@H](COP(=O)(N[C@@H](C)C(=O)OC(C)C)Oc2ccccc2OC(C)=O)[C@@H](O)[C@@]1(C)C#N` (some centres unmarked) yielded a Cytotoxicity in series [1] of 15 µM. In series [2] (Hepatitis C virus, 72 h), this compound registered an EC50 of 8.9 µM.
Taken in the same sequence, the figures for `CC(C)OP1(=O)OC[C@H]2O[C@@H](n3ccc(=O)[nH]c3=O)[C@](C)(C#N)[C@@H]2O1` (some centres unmarked) were above 100 µM and 1.3 µM.
The matching figures for `CC(C)COC(=O)[C@H](C)NP(=O)(OC[C@H]1O[C@@H](n2ccc(N)nc2=O)[C@](C)(C#N)[C@@H]1O)Oc1ccccc1` (some centres unmarked): 92 µM and 0.4 µM.
In turn, `CCC(NP(=O)(OC[C@H]1O[C@@H](n2cnc3c(OC)nc(N)nc32)[C@](C)(C#N)[C@@H]1O)Oc1ccccc1)C(=O)OC(C)C` (some centres unmarked) gave a Cytotoxicity in series [1] above 100 µM. This compound yielded an EC50 in series [2] (Hepatitis C virus, 72 h) of 2.2 µM.
Taken in the same sequence, the figures for `CCOc1nc(N)nc2c1ncn2[C@@H]1O[C@@H]2COP(=O)(OC3CCC3)O[C@H]2[C@@]1(C)C#N` (some centres unmarked) were above 100 µM and 1.2 µM.
Take `CC(=O)Nc1ccn([C@@H]2O[C@H](CO)[C@@H](O)[C@@]2(C)C#N)c(=O)n1` [Compound 1]: in series [3] (Hepatitis C virus, 72 h), the response was half-maximal at 14 µM (EC50).
In series [3], `C[C@@]1(C#N)[C@H](O)[C@@H](CO)O[C@H]1n1ccc(=O)[nH]c1=O` [Compound 2, 1-[(2R,3R,4S,5R)-3-cyano-4-hydroxy-5-(hydroxymethyl)-3-methyloxolan-2-yl]-1,2,3,4-tetrahydropyrimidine-2,4-dione] came in with an EC50 of 12.6 µM.
Turning to `C[C@@]1(C#N)[C@H](O)[C@@H](CO)O[C@H]1n1ccc(=O)[nH]c1=O` [Compound 3], the EC50 in series [3] is above 66 µM.
In turn, `CCOc1nc(NC(C)=O)nc2c1ncn2[C@@H]1O[C@H](CO)[C@@H](O)[C@@]1(C)C#N` [Compound 4] displayed an EC50 in series [3] (Hepatitis C virus, 72 h) of 100 µM.
With `CCOc1nc(N)nc2c1ncn2[C@@H]1O[C@H](CO)[C@@H](O)[C@@]1(C)C#N` [Compound 5], the EC50 in series [3] (Hepatitis C virus, 72 h) was above 100 µM.
The same measure, in the same setting: then `CCOc1nc(N)nc2c1ncn2[C@@H]1O[C@H](COP(=O)(N[C@@H](C)C(=O)OC)Oc2ccccc2)[C@@H](O)[C@@]1(C)C#N` (some centres unmarked) [Compound 6], with 1.4 µM; and `CCCCOC(=O)[C@H](C)NP(=O)(OC[C@H]1O[C@@H](n2cnc3c(OCC)nc(N)nc32)[C@](C)(C#N)[C@@H]1O)Oc1cccc2ccccc12` (some centres unmarked) [Compound 7], with 1 µM.
Same read-out and setting: the same measure for `CCOC(=O)[C@H](C)NP(=O)(OC[C@H]1O[C@@H](n2cnc3c(OCC)nc(N)nc32)[C@](C)(C#N)[C@@H]1O)Oc1ccccc1` (some centres unmarked) [Compound 8]: 11.7 µM; for `CCOc1nc(N)nc2c1ncn2[C@@H]1O[C@H](COP(=O)(N[C@@H](C)C(=O)OCC(C)(C)C)Oc2ccccc2)[C@@H](O)[C@@]1(C)C#N` (some centres unmarked) [Compound 9]: 0.7 µM; for `CCOc1nc(N)nc2c1ncn2[C@@H]1O[C@H](COP(=O)(N[C@@H](C)C(=O)OC(C)C)Oc2ccccc2)[C@@H](O)[C@@]1(C)C#N` (some centres unmarked) [Compound 10]: 15 µM.
Still for that read-out and setting: the same measure for `CCOC(=O)[C@H](C)NP(=O)(OC[C@H]1O[C@@H](n2cnc3c(OCC)nc(N)nc32)[C@](C)(C#N)[C@@H]1O)Oc1ccc(F)cc1` (some centres unmarked) [Compound 11]: 17 µM.
For `CCOC(=O)[C@H](C)NP(=O)(OC[C@H]1O[C@@H](n2cnc3c(OCC)nc(N)nc32)[C@](C)(C#N)[C@@H]1O)Oc1ccc(Cl)cc1` (some centres unmarked) [Compound 12], in series [3] (Hepatitis C virus, 72 h), the EC50 was found to be 1.7 µM.
On the same count and under the same terms, the same measure for `CCCCOC(=O)[C@H](C)NP(=O)(OC[C@H]1O[C@@H](n2cnc3c(OCC)nc(N)nc32)[C@](C)(C#N)[C@@H]1O)Oc1ccccc1` (some centres unmarked) [Compound 13]: 1.5 µM.
The same measure, in the same setting: the same measure for `COC(=O)[C@H](C)NP(=O)(OC[C@H]1O[C@@H](n2ccc(=O)[nH]c2=O)[C@](C)(C#N)[C@@H]1O)Oc1ccccc1` (some centres unmarked) [Compound 14]: 11 µM; for `C[C@H](NP(=O)(OC[C@H]1O[C@@H](n2ccc(=O)[nH]c2=O)[C@](C)(C#N)[C@@H]1O)Oc1ccccc1)C(=O)OCC(C)(C)C` (some centres unmarked) [Compound 15]: 5 µM; for `CCOC(=O)[C@H](C)NP(=O)(OC[C@H]1O[C@@H](n2ccc(=O)[nH]c2=O)[C@](C)(C#N)[C@@H]1O)Oc1ccccc1` (some centres unmarked) [Compound 16]: 51 µM.
The compound `COC(=O)[C@H](C)NP(=O)(OC[C@H]1O[C@@H](n2ccc(=O)[nH]c2=O)[C@](C)(C#N)[C@@H]1O)Oc1ccc(Cl)cc1` (some centres unmarked) [Compound 17] registered an EC50 in series [3] (Hepatitis C virus, 72 h) of 13 µM.
In the case of `CCCCOC(=O)[C@H](C)NP(=O)(OC[C@H]1O[C@@H](n2ccc(=O)[nH]c2=O)[C@](C)(C#N)[C@@H]1O)Oc1cccc2ccccc12` (some centres unmarked) [Compound 18], the EC50 in series [3] (Hepatitis C virus, 72 h) came out at 1 µM.
Compound `CCOC(=O)[C@H](C)NP(=O)(OC[C@H]1O[C@@H](n2ccc(=O)[nH]c2=O)[C@](C)(C#N)[C@@H]1O)Oc1ccc(Cl)cc1` (some centres unmarked) [Compound 19] gave an EC50 in series [3] (Hepatitis C virus, 72 h) of 15 µM.
In series [3] (Hepatitis C virus, 72 h), `CCCCOC(=O)[C@H](C)NP(=O)(OC[C@H]1O[C@@H](n2ccc(N)nc2=O)[C@](C)(C#N)[C@@H]1O)Oc1cccc2ccccc12` (some centres unmarked) [Compound 20] returned an EC50 of 16 µM.
Take `COC(=O)[C@H](C)NP(=O)(OC[C@H]1O[C@@H](n2ccc(N)nc2=O)[C@](C)(C#N)[C@@H]1O)Oc1ccccc1` (some centres unmarked) [Compound 21]: the EC50 in series [3] (Hepatitis C virus, 72 h) came to 25 µM.
Take `C[C@H](NP(=O)(OC[C@H]1O[C@@H](n2ccc(N)nc2=O)[C@](C)(C#N)[C@@H]1O)Oc1ccccc1)C(=O)OCC(C)(C)C` (some centres unmarked) [Compound 22]: in series [3] (Hepatitis C virus, 72 h), the EC50 turned out to be 18 µM.
Still for that read-out and setting: then `CC(C)OP1(=O)OC[C@H]2O[C@@H](n3ccc(N)nc3=O)[C@](C)(C#N)[C@@H]2O1` (some centres unmarked) [Compound 23], with 6.7 µM.
Compound `CC(C)OP1(=O)OC[C@H]2O[C@@H](n3ccc(N)nc3=O)[C@](C)(C#N)[C@@H]2O1` (some centres unmarked) [Compound 24] came in with an EC50 in series [3] of 7.9 µM.
Regarding `CCOP1(=O)OC[C@H]2O[C@@H](n3ccc(N)nc3=O)[C@](C)(C#N)[C@@H]2O1` (some centres unmarked) [Compound 25], in series [3] (Hepatitis C virus, 72 h), the EC50 was above 100 µM.
Same read-out and setting: then `C[C@@]1(C#N)[C@@H]2OP(=O)(Oc3ccccc3)OC[C@H]2O[C@H]1n1ccc(N)nc1=O` (some centres unmarked) [Compound 26], with 62 µM; and `C[C@@]1(C#N)[C@@H]2OP(=O)(OC3CCC3)OC[C@H]2O[C@H]1n1ccc(N)nc1=O` (some centres unmarked) [Compound 27], with above 100 µM.
`CCOc1nc(N)nc2c1ncn2[C@@H]1O[C@@H]2COP(=O)(OC(C)C)O[C@H]2[C@@]1(C)C#N` (some centres unmarked) [Compound 28]: the EC50 in series [3] (Hepatitis C virus, 72 h) was found to be 2.7 µM.
A word on the IC50: it is the concentration that inhibits the measured activity by half. In series [4], `C[C@@]1(C#N)[C@H](O)[C@@H](COP(=O)(O)OP(=O)(O)OP(=O)(O)O)O[C@H]1n1ccc(N)nc1=O` [Compound 29] had an IC50 of 0.5 µM.
`CC(C)OC(=O)[C@H](C)NP(=O)(OC[C@H]1O[C@@H](n2ccc(=O)[nH]c2=O)[C@](C)(C#N)[C@@H]1O)Oc1ccccc1Cl` (some centres unmarked) [Compound 30]: in series [3] (Hepatitis C virus, 72 h), the midpoint of the response, the EC50, lay at 571 µM.
In the case of `CC(C)COC(=O)[C@H](C)NP(=O)(OC[C@H]1O[C@@H](n2ccc(=O)[nH]c2=O)[C@](C)(C#N)[C@@H]1O)Oc1ccccc1` (some centres unmarked) [drawing 352], the Cytotoxicity in series [1] is above 100 µM. The same compound had an EC50 in series [2] of 1.4 µM.
In series [1], `CCCCOC(=O)[C@H](C)NP(=O)(OC[C@H]1O[C@@H](n2ccc(=O)[nH]c2=O)[C@](C)(C#N)[C@@H]1O)Oc1cccc2ccccc12` (some centres unmarked) [drawing 354] showed a Cytotoxicity above 100 µM. In addition, the midpoint of the response in series [2] (Hepatitis C virus, 72 h), the EC50, lay at 2.7 µM.
Consider `CC(C)OC(=O)[C@H](C)NP(=O)(OC[C@H]1O[C@@H](n2ccc(N)nc2=O)[C@](C)(C#N)[C@@H]1O)Oc1ccccc1` (some centres unmarked) [drawing 359], for which the Cytotoxicity in series [1] was above 100 µM. Also, it took 5.2 µM to reach a half-maximal effect in series [2] (Hepatitis C virus, 72 h) (EC50).
Taken in the same sequence, the figures for `CC(C)COC(=O)[C@H](C)NP(=O)(OC[C@H]1O[C@@H](n2ccc(=O)[nH]c2=O)[C@](C)(C#N)[C@@H]1O)Oc1ccccc1` (some centres unmarked) [drawing 360] were above 100 µM and 1.3 µM.
